Key:
HUVEC = assay: bFGF stimulated HUVEC proliferation in the presence of bFGF peptides; type: cell-based; settings: free synthetic peptide, in vitro
B16BL6 melanoma = assay: Growth of B16BL6 tumor cells in vitro with peptide and bFGF (cell counts); type: cell-based, murine; settings: 10,000 cells/well, various peptide concentrations, media with 5 ng/ml bFGF
Experimental: B16BL6 melanoma were plated at 10,000 cells/well in a 24 well plate and incubated overnight. […] This example provides methods useful for selecting peptides useful for the methods and compositions of the present invention.

bFGF = assay: Serum antibody response (ELISA) after vaccination with bFGF peptides conjugated to lipid A liposomes; type: in vivo; settings: C57BL/6J mice, peptide covalently conjugated to liposomal vesicles containing lipid A
Text: Both peptides A and B were incorporated into lipid A containing liposomes and used separately in a vaccination protocol. Peptides were conjugated to liposomes according to the methods and protocols described above in Example 8. Mice were immunized and boosted twice, bled and pooled serum analyzed for anti-peptide antibody titer and crossreactivity to bFGF by ELISA.
The comparison of titers and crossreactivity for serum from mice vaccinated with whole bFGF or with the liposomal heparin binding domain peptide of bFGF vaccine is shown in FIG. 4 and a comparison of the titers and crossreactivity for serum from mice vaccinated with whole bFGF or the liposomal receptor binding domain peptide of bFGF vaccine is shown in FIG. 5.

[1] = test system: bFGF-induced vascularization; assay: bFGF-containing gelatin sponge implanted on liver of vaccinated mice, histology; type: in vivo; settings: peptide-liposome vaccinated mice, sponge with recombinant human bFGF on liver, 14 days after implantation
Text: Following the vaccination protocol, mice were challenged with bFGF impregnated sponges and neovascularization assessed after 14 days, the results are shown in FIG. 6.
In order to determine if generation of antibody to the bFGF molecule has an effect on bFGF-induced vascularization, gelatin sponges containing recombinant human bFGF were implanted onto the left lobe of the liver of mice following vaccination with the liposomal lipid A controls, liposomes containing the heparin binding domain peptide, liposome containing the receptor binding domain peptide, or PBS. Fourteen days following implantation, the sponges were removed. Vascularity and leukocyte infiltration were assessed histologically. Well defined blood vessels containing red blood cells were evident in sponges removed from mice vaccinated with control preparations (liposomal lipid A and PBS). In addition, there was an abundant amount of cellular infiltration, consisting of white blood cells and fibroblasts. […] Although red blood cells were present in the histological sections of the sponge taken from mice vaccinated with the heparin binding domain peptide, they lacked well defined structures surrounding them.

B16-BL6 melanoma cells = assay: B16-BL6-containing gelatin sponge implanted on liver of vaccinated mice, histology; type: in vivo; settings: peptide-liposome vaccinated mice, 14 days after implantation
Text: In order to determine if vaccination could inhibit the angiogenesis induced by a tumor, gelatin sponges were implanted containing B16-BL6 melanoma cells onto the liver of mice following vaccination with control liposomes (liposomal lipid A), liposomes linked to the heparin binding domain peptide, liposomes linked to the receptor binding domain peptide, or PBS. Fourteen days following implantation, the sponges are removed and examined histologically. Sponges removed from mice vaccinated with liposomal lipid A and PBS contained viable and proliferating B16BL6 tumor cells. In addition, neovascularization into the sponge was abundant. […] Similar to findings from sponges containing bFGF, there was a tremendous amount of red blood cells lacking defined structures surrounding them.

B16BL6 = B16BL6 experimental lung metastasis after intravenous challenge of vaccinated mice; type: in vivo; settings: peptide conjugated to liposomes, vaccinated and boosted, intravenous melanoma challenge, 14 days
Text: Fourteen days after the mice were vaccinated, boosted, and challenged with B16B16 murine melanoma, the animals were sacrificed and the lungs were removed and numbers of melanotic tumor nodules on the surface were counted.
Two weeks following the final boost , mice were intravenously challenged with B16BL6. Mice were sacrificed at day 14 following challenge. […] The heparin binding domain peptide bFGF covalently linked to liposomes was used as a positive control in this experiment.

LLC-LM = LLC-LM experimental metastatic model, intravenous challenge, lung weight; type: in vivo, mice; settings: peptide in liposome format, 3 inoculations two weeks apart, day 17, based on lung weight, versus control
Experimental: Efficacy of vaccination of mice with the heparin binding domain peptide bFGF in a liposome format was determined in the LLC-LM experimental metastatic model.
Mice were vaccinated with the heparin binding domain peptide of bFGF in a liposome format using the same vaccination regimen as in the B16BL6 experiments above (3 inoculations two weeks apart). Two weeks following the final boost, mice were intravenously challenged with LLC-LM. At day 17, the control (no treatment) mice began to succumb to the tumor burden in the lung. All groups were sacrificed. Lungs were removed and analyzed based on lung weight. Normal lung weight was subtracted out of the treated and non-treated groups to determine the T/C. Vaccination with the heparin binding domain peptide inhibited the growth and development of LLC-LM experimental metastasis by 94% when compared to control. These lungs have been photographed and will be assessed histologically.

Row | Sequence | bFGF stimulated HUVEC proliferation (HUVEC) | bFGF stimulated HUVEC proliferation (HUVEC; listed as heparin-binding domain peptide) | growth of B16BL6 cells, cell counts (B16BL6 melanoma) | antibody response in serum (bFGF) | cellular infiltration and neovascularization of bFGF sponge [1] | neovascularization and tumor growth in B16-BL6 sponge (B16-BL6 melanoma cells) | mean number of lung metastases (B16BL6) | inhibition of growth and development of LLC-LM experimental metastasis (LLC-LM)
1 | YCKNGGFFLRIHPDGRVDGVREKSDPHIKLQLQAEERGV VSIKGV (YCKNGGFFLRIHPDGRVDGVREKSDPHIKLQLQAEERGVVSIKGV; listed as Homo sapiens) [heparin binding domain peptide, used free or conjugated to lipid A liposomes] | inhibitory effect | inhibited | no significant effect | antibody response | lack of cellular infiltration and neovascularization | blocked neovascularization and caused ablation of tumor growth and development | significantly reduces | 94%
2 | SNNYNTYRSRKYSSWYVALKR (listed as Homo sapiens) [receptor binding domain peptide, used free or conjugated to lipid A liposomes] | inhibited |  |  | no antibody response |  |  |  | 

— patent publication US6805865B1, “Compositions and methods for treating cancer and hyperproliferative disorders” (EntreMed, Inc., priority 1993, dated 2004)
